The record followed here is PubChem BioAssay AID1996.

≈ marks a conversion by molar mass, not a printed value.

The conditions of the data set: buffer; pH 7.4; 200.0 µM.
`O=C1CCC(C(=O)Nc2ccc(Cl)cc2)N1` (stereo not drawn): the solubility (kinetic) was over 35.8 µg/mL.

`O=C(CC12CC3CC(CC(C3)C1)C2)NCc1ccccc1` showed a solubility (kinetic) of 0.6 µg/mL (≈ 2.12 µM).

On to `CNC(=O)COC(=O)c1cc2c(s1)CCCC2`, for which the kinetic solubility was over 38 µg/mL.

As to `Cc1c(C(=O)C(=O)NCCCn2ccnc2)c2ccccc2n1C`, the kinetic solubility was over 48.7 µg/mL.

As for `Cc1cc(NC(=O)C2CC(=O)N(c3cccc(Cl)c3)C2)no1` (stereo not drawn), the kinetic solubility worked out at 16.3 µg/mL (≈ 51 µM).

The compound `Cc1cc(C)c2nc(N(CCN(C)C)C(=O)/C=C/c3cccs3)sc2c1.Cl` had a kinetic solubility of 0.9 µg/mL.

With `C#CCn1c(=O)cc(C)c2ccccc21`, the solubility (kinetic) was over 29.6 µg/mL.

`S=C1SCN(Cc2cccnc2)CN1Cc1cccnc1` came in with a solubility (kinetic) of over 47.5 µg/mL.

Compound `N#Cc1ccccc1NC(=O)Nc1ccccc1` came in with a solubility (kinetic) of over 35.6 µg/mL.

Regarding `O=C(Nc1ccc(N2CCCC2)cc1)c1cccc(Cl)c1Cl`, the kinetic solubility is under 0.4 µg/mL.

`CCOC(=O)N1CCN(C(=O)c2cc3cc(Cl)ccc3[nH]2)CC1` returned a kinetic solubility of 7 µg/mL (≈ 20.8 µM).

On to `Cc1cccc(-c2cc(C(=O)Nc3ccncc3)c3ccccc3n2)c1`, for which the solubility (kinetic) is 0.8 µg/mL (≈ 2.36 µM).

The compound `CN(C)Cc1cc(C(C)(C)C)cc(C(C)(C)C)c1O` had a kinetic solubility of 0.8 µg/mL (≈ 3.04 µM).

On to `CSc1ccc(S(=O)(=O)NC2CC3CCC2C3)cc1` (stereo not drawn), for which the solubility (kinetic) was 29.7 µg/mL (≈ 99.9 µM).

Turning to `COc1ccc2nc(-c3ccccn3)[nH]c2c1`, the solubility (kinetic) was found to be 24.8 µg/mL (≈ 110 µM).

For the compound `COc1ccc(C(CC(=O)NCc2ccccc2)C(C)C)cc1` (stereo not drawn), the solubility (kinetic) was 10.1 µg/mL (≈ 32.4 µM).

Take `O=C1CSC(c2ccccc2F)N1` (stereo not drawn): the kinetic solubility is over 29.6 µg/mL.

As to `O=[N+]([O-])c1cc(Cl)ccc1Nc1ccccc1`, the solubility (kinetic) is under 0.3 µg/mL.

The compound `COc1ccc(C2c3c(nc[nH]c3=O)Oc3nc[nH]c(=O)c32)cc1` had a kinetic solubility of over 48.6 µg/mL.

In turn, `CC(=O)Nc1cccc(NC(=S)Nc2cccc(Cl)c2Cl)c1` came in with a kinetic solubility of 26 µg/mL (≈ 73.4 µM).

`Cc1ccccc1-c1cn(-c2ccccc2)c(=S)[nH]1` yielded a solubility (kinetic) of 6.2 µg/mL (≈ 23.3 µM).

`CN(C)c1ccc(C=C2C(=O)NC(=O)NC2=O)cc1[N+](=O)[O-]` yielded a kinetic solubility of over 45.6 µg/mL.

Compound `CCCN(c1ccc(C)cc1)c1nc(=O)c2cccnc2s1` showed a kinetic solubility of 3 µg/mL (≈ 9.63 µM).

`CC1(O)CCN2C(=O)CCc3cccc1c32` (stereo not drawn) gave a kinetic solubility of 19.3 µg/mL (≈ 88.8 µM).

With `COc1ccc(Cl)cc1NC(=O)NCc1ccc2c(c1)OCO2`, the solubility (kinetic) is under 0.4 µg/mL.

As for `O=C(Nc1ccccc1Cl)c1cc(=O)c2ccccc2o1`, the kinetic solubility worked out at 0.7 µg/mL (≈ 2.34 µM).

Take `CCN(CC)S(=O)(=O)c1cc(NC(=O)CSCc2c(C)noc2C)ccc1C`: the solubility (kinetic) was over 63.8 µg/mL.

`Cc1ccnc(SCC(=O)c2cccs2)n1`: the solubility (kinetic) was over 37.5 µg/mL.

As for `N#Cc1ccc(-c2cccnc2)nc1SCC(N)=O`, the solubility (kinetic) is 38.2 µg/mL (≈ 141 µM).

As for `COC(=O)c1ccc(COC(=O)c2cccn2C)o1`, the solubility (kinetic) was 27.1 µg/mL (≈ 103 µM).

Regarding `CCOc1cccc(/C=N/NC(=O)c2cccnc2)c1O`, the kinetic solubility was over 42.8 µg/mL.

`CC(C)CC(=O)c1c[nH]c(C(=O)NCc2ccccc2)c1`: the kinetic solubility came to 1.6 µg/mL (≈ 5.63 µM).

For `Cc1ccc(N2CC(C(=O)N3CCCCCC3)CC2=O)cc1` (stereo not drawn), the solubility (kinetic) is over 45.1 µg/mL.

`Cc1cnc(=O)[nH]c1SCC(=O)Nc1nccs1` yielded a solubility (kinetic) of 31 µg/mL (≈ 110 µM).

Take `COc1cccc2cc(C(=O)NC(C)c3ccccc3)c(=O)oc12` (stereo not drawn): the solubility (kinetic) was under 0.7 µg/mL.

With `CC(CCc1ccccc1)N1CCN(C)CC1` (stereo not drawn), the kinetic solubility was determined as 33.2 µg/mL (≈ 143 µM).

`CCOc1ccc2ccccc2c1C(=O)N[C@@H]1C(=O)N2[C@@H]1SC(C)(C)[C@@H]2C(=O)[O-].[Na+]` had a solubility (kinetic) of over 65.5 µg/mL.

`Cc1cc(C(=O)N2CCC(C(=O)O)CC2)c(C(F)(F)F)o1` returned a solubility (kinetic) of over 45.8 µg/mL.

Regarding `CC(C)N1CC(COc2ccc(Cl)cc2Cl)OC1=O` (stereo not drawn), the kinetic solubility is over 45.6 µg/mL.

The compound `O=S(=O)(c1ccccc1)N1CC=C(c2ccccc2)CC1` showed a solubility (kinetic) of 1.1 µg/mL (≈ 3.67 µM).

On to `Cc1ccc(SCC(=O)c2c(C)nc3cc(C)ccn23)cc1`, for which the solubility (kinetic) came out at 0.7 µg/mL (≈ 2.25 µM).

`Cc1ccc(C(=O)C2=C(O)C(=O)N(Cc3ccco3)C2c2ccc(N(C)C)cc2)o1` (stereo not drawn) displayed a solubility (kinetic) of over 61 µg/mL.

Regarding `Cc1cc(=O)oc2cc(OCCSCCN3CCCC3)ccc12`, the solubility (kinetic) was over 50 µg/mL.

In the case of `Nc1ncnc(SCc2c(F)cccc2Cl)n1`, the solubility (kinetic) is 2.8 µg/mL (≈ 10.3 µM).

Turning to `O=C(O)CCSc1nnc(SCC(=O)NC2CCS(=O)(=O)C2)s1` (stereo not drawn), the kinetic solubility was over 59.6 µg/mL.

`CC1CN(C(=O)c2ccc(Oc3ccccc3)cc2)CC(C)O1` (stereo not drawn): the kinetic solubility is over 46.7 µg/mL.

Turning to `CCN(CC)c1ccc(CNc2ccc3c(c2)ncn3CC)cc1`, the kinetic solubility was 21.9 µg/mL (≈ 67.9 µM).

`Cc1ccccc1CN(C)CCc1ccccn1.O=C(O)C(=O)O`: the kinetic solubility is 25.6 µg/mL.

`Fc1ccc(NC(=S)NCc2ccccc2)cc1` registered a kinetic solubility of over 39 µg/mL.

For `Cc1cccc2cc(CNCc3ccccc3)c(Cl)nc12`, the kinetic solubility is 3.8 µg/mL (≈ 12.8 µM).

As to `CSc1nc2c(C)c(C)c(C)c(C)c2[nH]1`, the kinetic solubility turned out to be 3.2 µg/mL (≈ 14.5 µM).

`COc1ccc(Nc2nc3cc(C)ccc3cc2C#N)cc1`: the solubility (kinetic) was under 0.2 µg/mL.

`Cn1nc(C(=O)NNC(=O)c2cccc(Cl)c2)ccc1=O` gave a solubility (kinetic) of over 46 µg/mL.
